SMILES strings stand for the structures.

The subject of the data set is Hepatotoxicity. Briefly: Literature-mined public compounds from Greene et al multi-species hepatotoxicity modelling dataset.
As to `CC(=O)[C@]1(O)Cc2c(O)c3c(c(O)c2[C@@H](O[C@H]2C[C@H](N)[C@H](O)[C@H](C)O2)C1)C(=O)c1ccccc1C3=O.Cl` [IDARUBICIN HYDROCHLORIDE], the Hepatotoxicity result is listed as “NE: No evidence of hepatotoxicity in any species”. As to `O=c1[nH]c(=O)n([C@H]2C[C@H](O)[C@@H](CO)O2)cc1I` [IDOXURIDINE], the Hepatotoxicity entry is “HH: Evidence of human hepatotoxicity”.

As for `O=P1(NCCCl)OCCCN1CCCl` (stereo not given) [IFOSFAMIDE], the Hepatotoxicity result is reported as “HH: Evidence of human hepatotoxicity”. With `CN(C)CCCN1c2ccccc2CCc2ccccc21.Cl` [IMIPRAMINE HYDROCHLORIDE] the entry was “HH: Evidence of human hepatotoxicity”. With `Nc1cc(-c2ccncc2)c[nH]c1=O` [INAMRINONE] the entry was “HH: Evidence of human hepatotoxicity”; with `CC1(c2ccccc2)Cc2cc(OCC(=O)O)c(Cl)c(Cl)c2C1=O` (stereo not given) [INDACRINONE], “HH: Evidence of human hepatotoxicity”; with `COc1ccc2c(c1)c(CC(=O)O)c(C)n2C(=O)c1ccc(Cl)cc1` [INDOMETHACIN], “HH: Evidence of human hepatotoxicity”. On to `O[C@H]1[C@H](O)[C@@H](O)[C@H](O)[C@@H](O)[C@H]1O` [INOSITOL], for which the Hepatotoxicity entry was “NE: No evidence of hepatotoxicity in any species”. With `C[C@H](O)C(=O)Nc1c(I)c(C(=O)NC(CO)CO)c(I)c(C(=O)NC(CO)CO)c1I` [IOPAMIDOL] the entry was “HH: Evidence of human hepatotoxicity”; with `CC(C)NNC(=O)c1ccncc1` [IPRONIAZID], “HH: Evidence of human hepatotoxicity”. With `CCCCC1=NC2(CCCC2)C(=O)N1Cc1ccc(-c2ccccc2-c2nnn[nH]2)cc1` [IRBESARTAN] the entry was “WE: Weak evidence (<10 case reports) of human hepatotoxicity”; with `Cc1cc(C(=O)NNCc2ccccc2)no1` [ISOCARBOXAZID], “WE: Weak evidence (<10 case reports) of human hepatotoxicity”; with `NNC(=O)c1ccncc1` [ISONIAZID], “HH: Evidence of human hepatotoxicity”. Regarding `O=C(O)c1ccncc1` [ISONICOTINIC ACID], the Hepatotoxicity entry is reported as “NE: No evidence of hepatotoxicity in any species”.

For the compound `CC(C)NCC(O)c1ccc(O)c(O)c1.Cl` (stereo not given) [ISOPROTERENOL HYDROCHLORIDE], the Hepatotoxicity entry is on record as “NE: No evidence of hepatotoxicity in any species”. In the case of `O=[N+]([O-])O[C@H]1CO[C@H]2[C@@H]1OC[C@H]2O[N+](=O)[O-]` [ISOSORBIDE DINITRATE] it was “NE: No evidence of hepatotoxicity in any species”; in that of `CC1=C(/C=C/C(C)=C/C=C/C(C)=C\C(=O)O)C(C)(C)CCC1` [ISOTRETINOIN], “HH: Evidence of human hepatotoxicity”; in that of `Cc1cc(NC(=O)C2=C(O)c3ccccc3S(=O)(=O)N2C)no1` [ISOXICAM], “NE: No evidence of hepatotoxicity in any species”.

Turning to `CC(COc1ccccc1)NC(C)C(O)c1ccc(O)cc1.Cl` (stereo not given) [ISOXSUPRINE HYDROCHLORIDE], the Hepatotoxicity result is reported as “NE: No evidence of hepatotoxicity in any species”. As to `CC(=O)N1CCN(c2ccc(OCC3COC(Cn4ccnc4)(c4ccc(Cl)cc4Cl)O3)cc2)CC1` (stereo not given) [KETOCONAZOLE], the Hepatotoxicity result was “HH: Evidence of human hepatotoxicity”. With `CC(C(=O)O)c1cccc(C(=O)c2ccccc2)c1` (stereo not given) [KETOPROFEN] the entry was “NE: No evidence of hepatotoxicity in any species”; with `NC(CO)(CO)CO.O=C(c1ccccc1)c1ccc2n1CCC2C(=O)O` (stereo not given) [KETOROLAC TROMETHAMINE], “HH: Evidence of human hepatotoxicity”.

For the compound `CN1CCC(=C2c3ccccc3CC(=O)c3sccc32)CC1` [KETOTIFEN], the Hepatotoxicity entry is on record as “NE: No evidence of hepatotoxicity in any species”. With `CC(CCc1ccccc1)NCC(O)c1ccc(O)c(C(N)=O)c1` (stereo not given) [LABETALOL] the entry was “HH: Evidence of human hepatotoxicity”; with `Nc1ccn([C@@H]2CS[C@H](CO)O2)c(=O)n1` [LAMIVUDINE], “WE: Weak evidence (<10 case reports) of human hepatotoxicity”; with `Cc1oncc1C(=O)Nc1ccc(C(F)(F)F)cc1` [LEFLUNOMIDE], “HH: Evidence of human hepatotoxicity”. With `Nc1nc(=O)c2c([nH]1)NCC(CNc1ccc(C(=O)N[C@@H](CCC(=O)[O-])C(=O)[O-])cc1)N2C=O.[Ca+2]` (stereo not given in full) [LEUCOVORIN CALCIUM] the entry was “NE: No evidence of hepatotoxicity in any species”; with `N[C@@H](Cc1ccc(O)c(O)c1)C(=O)O` [LEVODOPA], “NE: No evidence of hepatotoxicity in any species”; with `C[C@H]1COc2c(N3CCN(C)CC3)c(F)cc3c(=O)c(C(=O)O)cn1c23.C[C@H]1COc2c(N3CCN(C)CC3)c(F)cc3c(=O)c(C(=O)O)cn1c23.O` [LEVOFLOXACIN], “WE: Weak evidence (<10 case reports) of human hepatotoxicity”.

Take `CCN(CC)CC(=O)Nc1c(C)cccc1C` [LIDOCAINE]: the Hepatotoxicity entry was “NE: No evidence of hepatotoxicity in any species”. In the case of `N[C@@H](Cc1cc(I)c(Oc2ccc(O)c(I)c2)c(I)c1)C(=O)O` [LIOTHYRONINE] it was “NE: No evidence of hepatotoxicity in any species”. With `NCCCC[C@H](N[C@@H](CCc1ccccc1)C(=O)O)C(=O)N1CCC[C@H]1C(=O)O` [LISINOPRIL ANHYDROUS] the entry was “HH: Evidence of human hepatotoxicity”; with `C[C@H](CCC(=O)O)[C@H]1CC[C@H]2[C@@H]3CC[C@@H]4C[C@H](O)CC[C@]4(C)[C@H]3CC[C@]12C` [LITHOCHOLIC ACID], “AH: Evidence for animal hepatotoxicity but not tested in humans”. With `CN(C)C(=O)C(CCN1CCC(O)(c2ccc(Cl)cc2)CC1)(c1ccccc1)c1ccccc1.Cl` [LOPERAMIDE HYDROCHLORIDE] the entry was “NE: No evidence of hepatotoxicity in any species”; with `N[C@@H](C(=O)N[C@@H]1C(=O)N2C(C(=O)O)=C(Cl)CC[C@H]12)c1ccccc1` [LORACARBEF ANHYDROUS], “NE: No evidence of hepatotoxicity in any species”. Turning to `CCCCc1nc(Cl)c(CO)n1Cc1ccc(-c2ccccc2-c2nn[nH]n2)cc1` [LOSARTAN], the Hepatotoxicity entry is reported as “HH: Evidence of human hepatotoxicity”. For `O=C(O)/C=C\C(=O)O` [MALEIC ACID], the Hepatotoxicity entry is reported as “AH: Evidence for animal hepatotoxicity but not tested in humans”. Consider `CNCCCC12CCC(c3ccccc31)c1ccccc12` [MAPROTILINE], for which the Hepatotoxicity entry is listed as “WE: Weak evidence (<10 case reports) of human hepatotoxicity”. With `COC(=O)Nc1nc2ccc(C(=O)c3ccccc3)cc2[nH]1` [MEBENDAZOLE] the entry was “HH: Evidence of human hepatotoxicity”; with `Cc1ccc(Cl)c(Nc2ccccc2C(=O)[O-])c1Cl.O.[Na+]` [MECLOFENAMATE SODIUM], “HH: Evidence of human hepatotoxicity”; with `CC(=O)O[C@]1(C(C)=O)CC[C@H]2[C@@H]3C[C@H](C)C4=CC(=O)CC[C@]4(C)[C@H]3CC[C@@]21C` [MEDROXYPROGESTERONE ACETATE], “WE: Weak evidence (<10 case reports) of human hepatotoxicity”.

On to `Cc1cccc(Nc2ccccc2C(=O)O)c1C` [MEFENAMIC ACID], for which the Hepatotoxicity result is listed as “HH: Evidence of human hepatotoxicity”. As for `COc1ccc2[nH]cc(CCNC(C)=O)c2c1` [MELATONIN], the Hepatotoxicity entry is “NE: No evidence of hepatotoxicity in any species”. `CC12CC3CC(C)(C1)CC(N)(C3)C2` [MEMANTINE]: the Hepatotoxicity entry was “NE: No evidence of hepatotoxicity in any species”. With `CC1=CC(=O)c2ccccc2C1=O` [MENADIONE] the entry was “AH: Evidence for animal hepatotoxicity but not tested in humans”. With `CCC1(c2ccccc2)C(=O)NC(=O)N(C)C1=O` (stereo not given) [MEPHOBARBITAL] the entry was “HH: Evidence of human hepatotoxicity”; with `CCCC(C)(COC(N)=O)COC(N)=O` [MEPROBAMATE], “HH: Evidence of human hepatotoxicity”. With `Sc1ncnc2nc[nH]c12` [MERCAPTOPURINE ANHYDROUS] the entry was “HH: Evidence of human hepatotoxicity”; with `CN1CCCCC1CCN1c2ccccc2Sc2ccc([S+](C)[O-])cc21.O=S(=O)(O)c1ccccc1` (stereo not given) [MESORIDAZINE BESYLATE], “HH: Evidence of human hepatotoxicity”; with `C#C[C@]1(O)CC[C@H]2[C@@H]3CCc4cc(OC)ccc4[C@H]3CC[C@@]21C` [MESTRANOL], “HH: Evidence of human hepatotoxicity”. In the case of `CC(=O)Nc1cccc(O)c1` [METACETAMOL], the Hepatotoxicity result is “WE: Weak evidence (<10 case reports) of human hepatotoxicity”.

Take `CC(C)NCC(O)c1cc(O)cc(O)c1.CC(C)NCC(O)c1cc(O)cc(O)c1.O=S(=O)(O)O` (stereo not given) [METAPROTERENOL SULFATE]: the Hepatotoxicity entry is given as “HH: Evidence of human hepatotoxicity”. With `CN(C)C(=N)N=C(N)N` [METFORMIN] the entry was “WE: Weak evidence (<10 case reports) of human hepatotoxicity”; with `C=C1c2cccc(O)c2C(=O)C2=C(O)[C@]3(O)C(=O)C(C(N)=O)=C(O)[C@@H](N(C)C)[C@@H]3[C@@H](O)[C@H]12.Cl` [METHACYCLINE HYDROCHLORIDE], “HH: Evidence of human hepatotoxicity”.

As for `CN(Cc1cnc2nc(N)nc(N)c2n1)c1ccc(C(=O)N[C@@H](CCC(=O)O)C(=O)O)cc1` [METHOTREXATE], the Hepatotoxicity entry was “HH: Evidence of human hepatotoxicity”. In the case of `COc1ccc(OC)c(C(O)C(C)N)c1.Cl` (stereo not given) [METHOXAMINE HYDROCHLORIDE] it was “NE: No evidence of hepatotoxicity in any species”. In the case of `COCC(=O)O` [METHOXYACETIC ACID] it was “AH: Evidence for animal hepatotoxicity but not tested in humans”; in that of `C[C@](N)(Cc1ccc(O)c(O)c1)C(=O)O` [METHYLDOPA], “HH: Evidence of human hepatotoxicity”; in that of `CC[C@@H](CO)NC(=O)[C@@H]1C=C2c3cccc4[nH]cc(c34)C[C@H]2N(C)C1.O=C(O)/C=C\C(=O)O` [METHYLERGONOVINE MALEATE], “NE: No evidence of hepatotoxicity in any species”. In the case of `COC(=O)C(c1ccccc1)C1CCCCN1` (stereo not given) [METHYLPHENIDATE] it was “HH: Evidence of human hepatotoxicity”.

(Values after ChEMBL document CHEMBL1697692, “Developing structure-activity relationships for the prediction of hepatotoxicity” (Chem Res Toxicol, 2010).)
